Data on one substance can be found in patent US20070054868A1, “Synergistic polyphenol compounds, compositions thereof, and uses thereof” (The Trustees of Columbia University in the City of New York, priority 2005, published 2007).

The test system of the assay is EGFR, ERK1, ERK2, and AKT. The assay is described as follows: Phosphorylation of signaling proteins in HT29 cells. Type of assay: cell-based, human. The protocol:
These effects were detected with as little as […] of EGCG, and within 5 minutes. Phosphorylation of EGFR, ERK1, ERK2, and AKT were suppressed in cells treated with methyl-β-cyclodextrin, which depletes plasma membrane cholesterol. […] In addition, the inhibitory effect of EGCG on phosphorylation of EGFR was not blocked by the addition of cholesterol on the growth medium. These findings provide evidence that EGCG can alter membrane domain organization in colon cancer cells ant that this is not due to cholesterol depletion. It was noted that pre-treatment of the cells with EGCG or Poly E inhibited the binding of Alexa 488-labeled EGF to the cell surface receptor EGFR.

For the substance “methyl-β-cyclodextrin [reference compound]”, the “phosphorylation of EGFR, ERK1, ERK2, and AKT” value is on record as “suppressed”.
